{"source": "patent US7658928B2", "about": "“Method of vaccination comprising administering an antigen and a cathelicidin derived antimicrobial peptide” (Intercell AG, priority 2000, dated 2010)", "key": {"[1]": {"tested_on": "peripheral blood monocytes", "conditions": "utilizing formyl peptide receptor-like 1 (FPRL1) (De, Chen et al. 2000); cited from earlier work"}, "[2]": {"tested_on": "neutrophils", "conditions": "Agerberth, Charo et al. 2000; De, Chen et al. 2000; cited from earlier work"}, "[3]": {"tested_on": "mast cells", "conditions": "mast cells (Niyonsaba, Someya et al. 2001); cited from earlier work"}, "[4]": {"tested_on": "immature and mature dendritic cells", "conditions": "Yang, Chen et al. 2001; cited from earlier work"}, "[5]": {"tested_on": "human CD1a positive dendritic cells", "assay": "TRANSloading of human dendritic cells with MHC class I and MHC class II peptides by LL-37", "type": "cell-based", "procedure": "To compare the efficiency of peptide delivery of these diverse “carrier-peptides”, the amount of peptide uptake into APCs was monitored by incubating P388D1 cells (murine monocyte-macrophage antigen presenting cell line; purchased from ATCC (TIB-63), or human CD1a positive (derived from human HLA-A2 positive donors, CD14+ positive PBMCS) dendritic cells, for 1 h at 37° C. with a constant amount of fuorescein-tagged peptide alone or in combination with diverse “carrier-peptides” at concentrations indicated. Before analysing the cells by flow cytometry, the cells were washed extensively to remove free peptide. The relative amount of fluorescein-tagged peptide taken up by the cells was measured by flow-cytometry.\nFIG. 8a • (1) no peptide (cells alone) • (2) 2.5 μg FL-[…] (SEQ ID NO:23) (MHC class I; peptide alone) • (3) 2.5 μg FL-[…] (SEQ ID NO:23) (MHC class I)+30 μg LL-37 (SEQ ID:2)\nFIG. 8b • (1) no peptide (cells alone) • (2) 2.5 μg FL-[…] (SEQ ID NO:24) (MHC class II; peptide alone) • (3) 2.5 μg FL-[…] (SEQ ID NO:24) (MHC class II)+30 μg LL-37 (SEQ ID:2)"}, "[6]": {"tested_on": "CD4+ T cells", "conditions": "Agerberth, Charo et al. 2000; De, Chen et al. 2000; cited from earlier work"}, "[7]": {"tested_on": "IFN-γ-producing specific cells (TRP-2 181-188 VYDFFVWL)", "assay": "IFN-γ ELISpot after vaccination of mice with TRP-2 peptide plus carrier-peptide", "type": "in vivo, mice (C57BL/6)", "conditions": "s.c. days 0, 7, 14, 100 μg VYDFFVWL + carrier-peptide, two weeks after 3rd vaccination, versus peptide alone or peptide plus poly-L-arginine; for IFN-γ-producing specific cells, splenocytes: FIG. 10", "procedure": "The groups of mice were injected as follows (amounts indicated/per mouse). • (1) 100 μg […] (SEQ ID NO:25) • (2) 100 μg […] (SEQ ID NO:25)+100 μg poly-L-arginine • (3) 100μ […] (SEQ ID NO:25)+[…] cathelicidin derived antimicrobial peptide (SEQ ID NO:1) • (4) 100 μg […] (SEQ ID NO:25)+500 μg bovine indolicidin (SEQ ID NO:3)\nTwo weeks after the 3rd vaccination, draining (inguinal) lymph nodes and spleens were removed and […]."}, "[8]": {"tested_on": "P388D1 cells (murine monocyte-macrophage antigen presenting cell line)", "assay": "TRANSloading assay: uptake of fluorescein-tagged antigenic peptide into P388D1 cells with carrier-peptides, flow cytometry", "type": "cell-based", "conditions": "for uptake of antigens in dendritic cells: summary statement, cells of mice"}, "[9]": {"tested_on": "tumor growth", "conditions": "co-injection with an appropriate peptide as a vaccine, mouse models (Schmidt, Buschle et al. 1997); cited from earlier work"}}}
{"substance": "LL-37: human cathelicidin derived antimicrobial peptide, C-terminal domain of hCAP-18 (LLGDFFRKSKEKIGKEFKRIVQRIKDFLRNLVPRTES)", "values": [{"measurement": "chemotaxis of peripheral blood monocytes", "setting": "[1]", "value": "induces chemotaxis"}, {"measurement": "chemotactic activity for neutrophils", "setting": "[2]", "value": "exert chemotactic activity"}, {"measurement": "histamine release", "setting": "[3]", "value": "shown to induce"}, {"measurement": "intracellular calcium mobilization", "setting": "[3]", "value": "shown to induce"}, {"measurement": "chemotactic activity for immature and mature dendritic cells", "setting": "[4]", "value": "no chemotactic activity"}, {"measurement": "pulsing of human dendritic cells with MHC class I antigenic peptide", "setting": "[5]; FIG. 8a, 2.5 μg FL-[…] + 30 μg LL-37", "value": "to a significant extent"}, {"measurement": "pulsing of human dendritic cells with MHC class II antigenic peptide", "setting": "[5]; FIG. 8b, 2.5 μg FL-[…] + 30 μg LL-37", "value": "to a significant extent"}, {"measurement": "uptake of antigens in dendritic cells", "setting": "[5]; summary statement, cells of men", "value": "enhance the uptake of antigens"}, {"measurement": "chemotactic activity for CD4+ T cells", "setting": "[6]", "value": "exert chemotactic activity"}]}
{"substance": "NH2-ILPWKWPWWPWRR-CONH2 [bovine indolicidin]", "values": [{"measurement": "IFN-γ-producing specific cells, lymph node cells", "setting": "[7]; FIG. 9", "value": "more IFN-γ-producing specific cells"}, {"measurement": "IFN-γ-producing specific cells, splenocytes", "setting": "[7]", "value": "more IFN-γ-producing specific cells"}, {"measurement": "uptake of antigens in dendritic cells", "setting": "[8]", "value": "enhance the uptake of antigens"}]}
{"substance": "PR-39: porcine proline-arginine-rich 39-amino-acid cathelicidin peptide (RRRPRPPYLPRPRPPPFFPPRLPPRIPPGFPPRFPPRFPGKR) [reference compound]", "values": [{"measurement": "chemotactic activity for neutrophils", "setting": "[2]", "value": "exert chemotactic activity"}]}
{"substance": "bovine dodecapeptide: bovine cathelicidin derived antimicrobial dodecapeptide, SEQ ID NO:4, linear form in Example 3 (RLCRIVVIRVCR)", "values": [{"measurement": "pulsing effect with increasing amounts of carrier-peptide", "setting": "[8]; Example 3, FIG. 6, 2 μg FL-LFEAIEGFI + 18.75, 37.5, 75, 150 μg linear bovine dodecapeptide", "value": "increased significantly"}, {"measurement": "uptake of antigens in dendritic cells", "setting": "[8]", "value": "enhance the uptake of antigens"}]}
{"substance": "murine cathelicidin derived antimicrobial peptide: murine cathelin-related antimicrobial peptide, SEQ ID NO:1 (SRLAGLLRKGGEKIGEKLKKIGQKIKNFFQKL)", "values": [{"measurement": "IFN-γ-producing specific cells, splenocytes", "setting": "[7]", "value": "more IFN-γ-producing specific cells"}, {"measurement": "uptake of antigens in dendritic cells", "setting": "[8]", "value": "enhance the uptake of antigens"}]}
{"substance": "poly-L-arginine", "values": [{"measurement": "protection from tumor growth", "setting": "[9]", "value": "protects animals from tumor growth"}]}
{"substance": "poly-L-lysine", "values": [{"measurement": "protection from tumor growth", "setting": "[9]", "value": "protects animals from tumor growth"}]}
